From ChEMBL document CHEMBL1201862, “PubChem BioAssay data set” (2004)
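Tested at 5 concentrations; 48 h exposure; 96-well plates; endpoints linearly interpolated, else capped at highest concentration. The concentration for 50% growth inhibition is given as GI50.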 Active and inactive are the calls of the source. Cut-off read from the data, not from the text of the source: active = GI50 up to about 1.1 µM and inactive = higher.

Columns and labels:
Assay in all cases: NCI anticancer screen, dose series, 48 h
[1] = tested on: ACHN
[2] = tested on: HCC 2998
[3] = tested on: HT-29
[4] = tested on: Hs-578T
[5] = tested on: K562
[6] = tested on: KM12
[7] = tested on: M14
[8] = tested on: MCF7
[9] = tested on: MDA-MB-435
[10] = tested on: OVCAR-5
[11] = tested on: OVCAR-8
[12] = tested on: PC-3
[13] = tested on: SK-MEL-2
[14] = tested on: SK-MEL-5
[15] = tested on: SK-OV-3
[16] = tested on: SW-620
[17] = tested on: U-251
[18] = tested on: UO-31
[19] = tested on: MDA-MB-231
[20] = tested on: HOP-92

Measured: GI50

Cc1ncc([N+](=O)[O-])n1CCNC(=O)CCn1ccnc1[N+](=O)[O-]
inactive: [1] > 100 µM | [2] > 100 µM | [3] > 100 µM | [4] 66.8 µM | [5] > 100 µM | [6] > 100 µM | [7] > 100 µM | [8] > 100 µM | [9] > 100 µM | [10] > 100 µM | [11] > 100 µM | [12] > 100 µM | [13] > 100 µM | [14] > 100 µM | [15] > 100 µM | [16] > 100 µM | [17] > 100 µM | [18] > 100 µM

CC1N(C)C(=O)OC12CCN(CCCC(=O)c1ccc(F)cc1)CC2 (centres undefined)
inactive: [1] > 100 µM | [3] > 100 µM | [4] > 100 µM | [5] > 100 µM | [6] > 100 µM | [7] > 100 µM | [8] > 100 µM | [19] > 100 µM | [9] > 100 µM | [10] > 100 µM | [11] > 100 µM | [12] > 100 µM | [13] > 100 µM | [14] > 100 µM | [15] > 100 µM | [16] > 100 µM | [17] > 100 µM | [18] > 100 µM

COc1cc2c(cc1OC)C1CN3C(=O)CCC3C(O)C1c1cc(OC)c(OC)cc1-2 (centres undefined)
inactive: [1] > 100 µM | [2] > 100 µM | [20] > 100 µM | [3] > 100 µM | [4] > 100 µM | [5] > 100 µM | [6] > 100 µM | [7] > 100 µM | [8] > 100 µM | [19] > 100 µM | [9] > 100 µM | [10] > 100 µM | [11] > 100 µM | [13] > 100 µM | [14] > 100 µM | [15] > 100 µM | [16] > 100 µM | [17] > 100 µM | [18] > 100 µM

CCOc1cc(NC(C)=O)ccc1C(=O)NN1C(=O)/C(=C/c2ccco2)N=C1c1ccccc1
inactive: [1] > 100 µM | [2] > 100 µM | [20] 36.2 µM | [3] > 100 µM | [4] 42.8 µM | [5] 26.8 µM | [6] > 100 µM | [7] > 100 µM | [8] > 100 µM | [9] > 100 µM | [10] > 100 µM | [11] 41.2 µM | [12] > 100 µM | [13] > 100 µM | [14] 54.6 µM | [15] > 100 µM | [16] > 100 µM | [18] 61.7 µM

CCOC(=O)CCC(C(=O)OCC)n1nnc2cc(Nc3c(C)[n+]([O-])c4ccc(Cl)cc4[n+]3[O-])ccc21 (centres undefined)
inactive: [1] 60.7 µM | [20] 50.8 µM | [3] 67.8 µM | [4] > 100 µM | [5] 69.3 µM | [6] > 100 µM | [7] > 100 µM | [8] 34.2 µM | [9] > 100 µM | [10] > 100 µM | [11] > 100 µM | [12] > 100 µM | [13] 99.1 µM | [14] 73.8 µM | [15] > 100 µM | [16] > 100 µM | [17] 80 µM | [18] 65.5 µM

Cc1cc(=O)nc(S(=O)(=O)NC(=S)Nc2ccc(Br)cc2)[nH]1
inactive: [1] > 100 µM | [2] > 100 µM | [20] 21 µM | [3] > 100 µM | [4] > 100 µM | [7] > 100 µM | [19] > 100 µM | [9] > 100 µM | [10] > 100 µM | [11] > 100 µM | [12] > 100 µM | [13] > 100 µM | [14] > 100 µM | [15] > 100 µM | [16] > 100 µM | [17] > 100 µM | [18] > 100 µM

CC(=O)N(O)c1ccc(-c2nc3ccccc3s2)cc1
inactive: [1] 47.5 µM | [2] 61.9 µM | [20] 64.4 µM | [3] 46.6 µM | [4] 32.7 µM | [5] > 100 µM | [6] 38.2 µM | [7] 85.7 µM | [19] 49.7 µM | [9] 86.9 µM | [10] > 100 µM | [11] 40.9 µM | [12] > 100 µM | [13] 66.7 µM | [14] 39.2 µM | [16] > 100 µM | [17] 87.9 µM | [18] 46 µM

CN(N)/N=N/c1[nH]cnc1[N+](=O)[O-]
inactive: [1] > 100 µM | [2] > 100 µM | [3] > 100 µM | [4] > 100 µM | [5] 19.6 µM | [6] > 100 µM | [7] > 100 µM | [19] 21.7 µM | [9] > 100 µM | [10] > 100 µM | [11] 28.4 µM | [12] > 100 µM | [13] > 100 µM | [14] > 100 µM | [15] > 100 µM | [16] 81.1 µM | [17] > 100 µM | [18] 61.1 µM
